Results: patent publication US9562053B2, “Benzo-fused heterocyclic derivatives useful as agonists of GPR120” (Janssen Pharmaceutica NV, priority 2013, dated 2017)

Target: T1, long form of human GPR120 (Homo sapiens, UniProt Q5NUL3)
T1 construct: host or cells: PathHunter CHO-K1 GPR120 β-Arrestin Cell Line
T1 sequence (Q5NUL3 1-377 isoform Q5NUL3-1): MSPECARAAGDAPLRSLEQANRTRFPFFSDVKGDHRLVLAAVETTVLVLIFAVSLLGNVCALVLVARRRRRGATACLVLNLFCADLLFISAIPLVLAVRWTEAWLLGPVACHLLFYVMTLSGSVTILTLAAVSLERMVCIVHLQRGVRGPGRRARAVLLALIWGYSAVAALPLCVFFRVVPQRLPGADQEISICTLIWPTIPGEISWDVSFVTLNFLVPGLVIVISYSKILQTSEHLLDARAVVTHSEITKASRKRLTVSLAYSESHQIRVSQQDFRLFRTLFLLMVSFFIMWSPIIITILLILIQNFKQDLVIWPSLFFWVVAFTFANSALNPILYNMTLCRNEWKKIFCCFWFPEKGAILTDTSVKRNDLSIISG
Experiment: Human GPR120 DiscoveRx PathHunter Beta-Arrestin Assay, Procedure β-arrestin A (3000 cells per well)
Type: cell-based
Conditions: read-out: GPR120 B-arrestin A EC50
Method in brief: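 PathHunter CHO-K1 cells with long-form receptor, 3000/well, seeded overnight at 37 °C; equilibrated 60 min at 37 °C in HBSS/20 mM HEPES/0.1% BSA, pH 7.4. Compound serial dilutions (25–0.012 μM) added for 90 min at 37 °C, detection 60 min at room temperature, luminescence read; EC50 from % of positive control, Hill slope fixed at 1.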

| Structure (SMILES) | EC50 [nM] |
| --- | --- |
| CCOc1c(Cl)cc2cc(CC)oc2c1COc1ccc(CCC(=O)O)c(C)c1C [Compound 62, 3-{4-[(5-Chloro-6-ethoxy-2-ethyl-1-benzofuran-7-yl)methoxy]-2,3-dimethylphenyl}propanoic acid] | 274 |
| CCc1cc2cc(Cl)c(CC)c(COc3ccc(CCC(=O)O)c(C)c3C)c2o1 [Compound 61, 3-{4-[(5-Chloro-2,6-diethyl-1-benzofuran-7-yl)methoxy]-2,3-dimethylphenyl}propanoic acid] | 190 |
| CCc1cc2cc(F)cc(COc3ccc(CCC(=O)O)c(C)c3C)c2o1 [Compound 3, 3-{4-[(2-Ethyl-5-fluoro-1-benzofuran-7-yl)methoxy]-2,3-dimethylphenyl}propanoic acid] | 327 |
| Cc1cc2c(F)c(OC(F)(F)F)c(F)c(COc3ccc(CCC(=O)O)c(C)c3C)c2o1 [Compound 71, 3-(4-{[4,6-Difluoro-2-methyl-5-(trifluoromethoxy)-1-benzofuran-7-yl]methoxy}-2,3-dimethylphenyl)propanoic acid] | 45 |
| Cc1c(CCC(=O)O)ccc(OCc2cc(Cl)cc3cc(C=CF)oc23)c1C (mixture of isomers) [Compound 88, 3-(4-((5-Chloro-2-(2-fluorovinyl)benzofuran-7-yl)methoxy)-2,3-dimethylphenyl)propanoic acid] | 594 |
| Cc1nc2c(COc3ccc(CCC(=O)O)c(C)c3C)cc(Cl)cc2s1 [Compound 98, 3-{4-[(6-Chloro-2-methyl-1,3-benzothiazol-4-yl)methoxy]-2,3-dimethylphenyl}propanoic acid] | 154 |
| Cc1cc2cc(OC(F)(F)F)cc(COc3ccc(CCC(=O)O)c4c3CCC4)c2o1 [Compound 55, 3-(7-{[2-Methyl-5-(trifluoromethoxy)-1-benzofuran-7-yl]methoxy}-2,3-dihydro-1H-inden-4-yl)propanoic acid] | 73 |
| CCc1cc2cc(Cl)c(OC)c(COc3ccc(CCC(=O)O)c(C)c3C)c2o1 [Compound 44, 3-{4-[(5-Chloro-2-ethyl-6-methoxy-1-benzofuran-7-yl)methoxy]-2,3-dimethylphenyl}propanoic acid] | 230 |
| Cc1cc2cc(Cl)c(C)c(COc3c(F)cc(CCC(=O)O)cc3F)c2o1 [Compound 86, 3-{4-[(5-Chloro-2,6-dimethyl-1-benzofuran-7-yl)methoxy]-3,5-difluorophenyl}propanoic acid] | 460 |
| Cc1c(CCC(=O)O)ccc(OCc2cc(Cl)cc3cnn(C)c23)c1C [Compound 7, 3-{4-[(5-Chloro-1-methyl-1H-indazol-7-yl)methoxy]-2,3-dimethylphenyl}propanoic acid] | 108 |
| CCCc1cc2cc(C(F)(F)F)cc(COc3ccc(CCC(=O)O)c(C)c3C)c2o1 [Compound 37, 3-(2,3-Dimethyl-4-{[2-propyl-5-(trifluoromethyl)-1-benzofuran-7-yl]methoxy}phenyl)propanoic acid] | 271 |
| CCc1cc2cc(Cl)c(OC(F)F)c(COc3ccc(CCC(=O)O)c(C)c3C)c2o1 [Compound 69, 3-(4-{[5-Chloro-6-(difluoromethoxy)-2-ethyl-1-benzofuran-7-yl]methoxy}-2,3-dimethylphenyl)propanoic acid] | 223 |
| Cc1cc2cc(OC(F)(F)F)cc(COc3ccc(CCC(=O)O)c(C)c3C)c2o1 [Compound 36, 3-(2,3-Dimethyl-4-{[2-methyl-5-(trifluoromethoxy)-1-benzofuran-7-yl]methoxy}phenyl)propanoic acid] | 85 |
| CCOc1cc(COc2ccc(CCC(=O)O)c(C)c2C)c2oc(CC)cc2c1 [Compound 29, 3-{4-[(5-Ethoxy-2-ethyl-1-benzofuran-7-yl)methoxy]-2,3-dimethylphenyl}propanoic acid] | 616 |
| Cc1cc2cc(Cl)cc(COc3c(F)cc(CCCO)cc3F)c2s1 [Compound 93, 3-{4-[(5-Chloro-2-methyl-1-benzothiophen-7-yl)methoxy]-3,5-difluorophenyl}propan-1-ol] | 536 |
| CCc1cc2cc(Cl)c(OCC(C)C)c(COc3ccc(CCC(=O)O)c(C)c3C)c2o1 [Compound 67, 3-(4-{[5-Chloro-2-ethyl-6-(2-methylpropoxy)-1-benzofuran-7-yl]methoxy}-2,3-dimethylphenyl)propanoic acid] | 221 |
| CCc1cc2cc(OC(F)(F)F)cc(COc3ccc(CCC(=O)O)c4c3CCC4)c2o1 [Compound 52, 3-(7-{[2-Ethyl-5-(trifluoromethoxy)-1-benzofuran-7-yl]methoxy}-2,3-dihydro-1H-inden-4-yl)propanoic acid] | 374 |
| Cc1cc2cc3c(c(COc4ccc(CCC(=O)O)c(C)c4C)c2o1)OCO3 [Compound 82, 3-{2,3-Dimethyl-4-[(6-methylfuro[2,3-f][1,3]benzodioxol-4-yl)methoxy]phenyl}propanoic acid] | 851 |

| Structure (SMILES) | EC50 [nM] |
| --- | --- |
| CCc1cc2cc(Cl)cc(COc3ccc(CCC(=O)O)c(C)c3C)c2o1 [Compound 11, 3-{4-[(5-Chloro-2-ethyl-1-benzofuran-7-yl)methoxy]-2,3-dimethylphenyl}propanoic acid] | 283 |
| Cc1cc2cc(Cl)c(C)c(COc3ccc(CCC(=O)O)c(C)c3C)c2o1 [Compound 85, 3-{4-[(5-Chloro-2,6-dimethyl-1-benzofuran-7-yl)methoxy]-2,3-dimethylphenyl}propanoic acid] | 238 |
| CCc1cc2cc(Cl)c(C)c(COc3ccc(CCC(=O)O)c(C)c3C)c2o1 [Compound 40, 3-{4-[(5-Chloro-2-ethyl-6-methyl-1-benzofuran-7-yl)methoxy]-2,3-dimethylphenyl}propanoic acid] | 107 |
| CCOc1ccc2cc(CC)oc2c1COc1ccc(CCC(=O)O)c(C)c1C [Compound 66, 3-{4-[(6-Ethoxy-2-ethyl-1-benzofuran-7-yl)methoxy]-2,3-dimethylphenyl}propanoic acid] | 1410 |
| Cc1cc2cc3c(c(COc4ccc(CCC(=O)O)c(C)c4C)c2o1)OC(F)(F)O3 [Compound 89, 3-{4-[(2,2-Difluoro-6-methylfuro[2,3-f][1,3]benzodioxol-4-yl)methoxy]-2,3-dimethylphenyl}propanoic acid] | 119 |
| CCc1cc2cc(F)cc(COc3c(F)cc(CCC(=O)O)cc3F)c2o1 [Compound 17, 3-{4-[(2-Ethyl-5-fluoro-1-benzofuran-7-yl)methoxy]-3,5-difluorophenyl}propanoic acid] | 455 |
| Cc1c(CCC(=O)O)ccc(OCc2cc(OC(F)(F)F)cc3cc(C=CF)oc23)c1C (mixture of isomers) [Compound 97, 3-(4-{[2-(2-Fluoroethenyl)-5-(trifluoromethoxy)-1-benzofuran-7-yl]methoxy}-2,3-dimethylphenyl)propanoic acid] | 169 |
| Cc1c(CCC(=O)O)ccc(OCc2cc(Cl)cc3cc(CC(F)F)oc23)c1C [Compound 87, 3-(4-{[5-Chloro-2-(2,2-difluoroethyl)-1-benzofuran-7-yl]methoxy}-2,3-dimethylphenyl)propanoic acid] | 409 |
| Cc1oc2cc(Cl)cc(COc3ccc(CCC(=O)O)c(C)c3C)c2c1C [Compound 80, 3-{4-[(6-Chloro-2,3-dimethyl-1-benzofuran-4-yl)methoxy]-2,3-dimethylphenyl}propanoic acid] | 249 |
| Cc1cc2cc(F)cc(COc3ccc(CCC(=O)O)c(C)c3C)c2o1 [Compound 2, 3-{4-[(5-Fluoro-2-methyl-1-benzofuran-7-yl)methoxy]-2,3-dimethylphenyl}propanoic acid] | 374 |
| Cc1cc2cc(Cl)cc(COc3ccc(CCC(=O)O)c(C)c3C)c2o1 [Compound 78, 3-{4-[(5-Chloro-2-methyl-1-benzofuran-7-yl)methoxy]-2,3-dimethylphenyl}propanoic acid] | 121 |
| Cc1c(CCC(=O)O)ccc(OCc2cc(F)cc3cc(C(F)(F)F)oc23)c1C [Compound 4, 3-(4-{[5-Fluoro-2-(trifluoromethyl)-1-benzofuran-7-yl]methoxy}-2,3-dimethylphenyl)propanoic acid] | 5210 |
| Cc1c(CCC(=O)O)ccc(OCc2cc(F)cc3cc(C(C)C)oc23)c1C [Compound 22, 3-(4-{[5-Fluoro-2-(1-methylethyl)-1-benzofuran-7-yl]methoxy}-2,3-dimethylphenyl)propanoic acid] | 797 |
| Cc1nc2cc(Cl)cc(COc3ccc(CCC(=O)O)c(C)c3C)c2o1 [Compound 84, 3-{4-[(5-Chloro-2-methyl-1,3-benzoxazol-7-yl)methoxy]-2,3-dimethylphenyl}propanoic acid] | 434 |
| CC#Cc1cc(COc2ccc(CCC(=O)O)c(C)c2C)c2oc(C)cc2c1 [Compound 83, 3-{2,3-Dimethyl-4-[(2-methyl-5-prop-1-yn-1-yl-1-benzofuran-7-yl)methoxy]phenyl}propanoic acid] | 440 |
| CCc1cc2cc(OC(F)(F)F)cc(COc3ccc(CCC(=O)O)c(C)c3C)c2o1 [Compound 12, 3-(4-{[2-Ethyl-5-(trifluoromethoxy)-1-benzofuran-7-yl]methoxy}-2,3-dimethylphenyl)propanoic acid] | 151 |
| Cc1c(CCC(=O)O)ccc(OCc2cc(F)cc3cc(CC(C)C)oc23)c1C [Compound 23, 3-(4-{[5-Fluoro-2-(2-methylpropyl)-1-benzofuran-7-yl]methoxy}-2,3-dimethylphenyl)propanoic acid] | 470 |
